# Assay results published in patent US9784730B2, “Nanoparticle for targeting brain tumors and delivery of O6-benzylguanine” (University of Washington through its Center for …, priority 2013, dated 2017).
# Experiments:
# [1] = system: SF767 cells; assay: Clonogenic survival assay with TMZ; type: cell-based, human
# Protocol: SF767 cells are noted for their pronounced resistance to TMZ (LD50 about 600 μM) mediated in large part by MGMT. The effect of suppression of MGMT activity by NPCP-BG on TMZ-mediated reduction in clonogenic survival of SF767 is illustrated in FIG. 6. Cells were exposed to NPCP-BG equivalent to 20 μM free drug for 2 hr followed by incubation with TMZ for 24 hr in the presence of inhibitor. Controls were treated either with 20 μM free BG or with an equivalent volume of DMSO.
# Determination of proliferative survival of SF767 by clonogenic assay was performed as described previously (Blank et al., DNA Repair 2004, 3, 629-638). Briefly, 6-well plates inoculated with 2 mL of supplemented medium containing 1000 to 2000 cells were incubated overnight at 37° C. in 95%/5% air/CO2 to allow reattachment and resumption of proliferation. Cells were then incubated for 2 hrs with inhibitor-conjugated NP equivalent to 20 μM free BG prior to exposure to TMZ. Incubation was continued for 22 hr before changing cells to fresh, drug-free medium to allow formation of colonies ≧50 cells. […] Cytotoxicity was quantitated by linear regression analysis of plots of log surviving fraction v. […] Survival was determined in 4 separate experiments in which every dose was assayed in duplicate (i.e., 8 determinations per TMZ dose) in order to achieve statistical significance.
# [2] = rodent models; cited from earlier work
# [3] = clinical trials, BG included in TMZ regimens; cited from earlier work
# [4] = biological target: T1, O6-methylguanine-DNA methyltransferase (MGMT) (Homo sapiens, UniProt P16455); assay: MGMT activity assay in treated SF767 cells; type: cell-based; conditions: 20 μM free BG, 2 hr
# T1 construct: MGMT activity determined in cleared supernatants of whole cell homogenates; endogenous in cells; host or cells: SF767 human GBM cell line (ATCC)
# T1 sequence (P16455 1-207): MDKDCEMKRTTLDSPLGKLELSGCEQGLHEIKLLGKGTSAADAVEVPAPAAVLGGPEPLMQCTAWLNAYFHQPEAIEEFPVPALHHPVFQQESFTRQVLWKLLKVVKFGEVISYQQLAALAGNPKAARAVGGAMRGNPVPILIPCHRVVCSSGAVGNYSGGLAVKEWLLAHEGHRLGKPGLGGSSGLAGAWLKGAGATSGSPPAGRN
# Protocol: In this experiment, MGMT activity was assayed in untreated cells, cells incubated with 20 μM free BG for 2 hr, and cells treated for either 2 hr or 24 hr with NPCP-BG equivalent to 5 μM, 10 μM or 20 μM BG. […] All treatment conditions were normalized as a percent MGMT activity of untreated SF767 cells.
# The MGMT activities of protein extracts of human GBM SF767 cells were measured in a standard biochemical assay that quantifies the transfer of radioactivity from a DNA substrate containing [methyl^3H]O^6-methylguanine (specific activity, 80 Ci/mmol) to protein, as detailed previously (Silber et al., Cancer Res 1998, 58, 1068-1073). 2×10^6 SF767 cells were plated in 100 mm treated dishes and incubated with 20 μM free BG for and 2 hr or 24 hr with NPCP-BG equivalent to 5 μM, 10 μM or 20 μM BG in fully supplemented media. After incubation, cells were washed with PBS and collected and protein extracts were prepared. The protein extract supernatant was prepared by dissolution of washed SF767 pellets of known cell number with non-ionic detergents in the presence of 600 mM NaCl. Aliquots of crude homogenate were saved for DNA determination by the diphenylamine method that measures deoxyribose following degradation of DNA with heat and acid. Crude homogenate was cleared by centrifugation at 10,000×g for 30 min. […]
# [5] = system: brain tumors; conditions: cited from earlier work
molecule,measurement,setting,value
"Nc1nc(OCc2ccccc2)c2nc[nH]c2n1 [BG, O^6-benzylguanine]",TMZ LD50 in presence of MGMT inhibitor,[1]; inhibitor equivalent to 20 μM BG for 2 hr before TMZ for 24 hr,about 15 μM
same,Half-life reported in literature,[2],1.2 h
same,Reduction of maximum tolerated dose (MTD) of TMZ,[3],50%
same,Fold reduction of MGMT activity,[4],about 28 fold
same,MGMT activity as percent of untreated activity,[4],about 3.6%
"Cn1nnc2c(C(N)=O)ncn2c1=O [TMZ, temozolomide]",TMZ LD50 (dose reducing clonogenic survival to 50%),[1]; TMZ alone,about 600 μM
chlorotoxin [CTX],Brain tumors targeted of those examined,[5],74 out of 79
